Data published in patent publication US12180226B2, “Spirotricycle RIPK1 inhibitors and methods of uses thereof” (Merck Sharp & Dohme LLC, priority 2021, dated 2024).

Biological target: RIPK1 (recombinant GST-RIPK1 kinase domain, residues 1-327) (Homo sapiens (Human), UniProt Q13546)
Experiment: RIPK1-ADP-Glo Enzymatic Assay
Assay type: biochemical
Conditions: ADP-Glo; 25 nM GST-RIPK1, 300 μM ATP; assay lower limit ~25 nM; read-out: RIPK1 V0 Ec50
Experimental: RIPK1-ADP-Glo Enzymatic Assay
The enzymatic activity of RIPK1 is measured using an assay derived from ADP-Glo kit (TMPromega), which provides a luminescent-based ADP detection system. Specifically, the ADP generated by RIPK1 kinase is proportionally detected as luminescent signals in a homogenous fashion. In this context, the assessment of the inhibitory effect of small molecules (EC50) is measured by the effectiveness of the compounds to inhibit the ATP to ADP conversion by RIPK1.
In this assay, the potency (EC50) of each compound was determined from a ten-point (1:3 serial dilution; top compound concentration of 100000 nM) titration curve using the following outlined procedure. The assay bottom or lower limit of confidence is ˜25 nM. To each well of a white ProxiPlus 384 well-plate, 30 nL of compound (1% DMSO in final assay volume of 3 μL) was dispensed, followed by the addition of 2 μL of 1×assay buffer (25 mM Hepes 7.3, 20 mM MgCl2, 50 mM NaCl, 1 mM DTT, 0.005% Tween20, and 0.02% BSA) containing 37.5 nM of GST-RIPK1 (recombinant GST-RIPK1 kinase domain (residues 1-327) enzyme produced from baculovirus-transfected Sf21 cells: MW=62 kDa). Plates were placed in an ambient temperature humidified chamber for a 30-minute pre-incubation with compound. Subsequently, each reaction was initiated by the addition of 1 μL 1×assay buffer containing 900 μM ATP and […] dephosphorylated-MBP substrate. The final reaction in each well of 3 μL consists of 25 nM of GST-RIPK1, 300 μM ATP, and 3 μM dephosphorylated-MBP. Kinase reactions were allowed to proceed for 150 minutes prior to adding ADP-Glo reagents per Promega's outlined kit protocol. Dose-response curves were generated by plotting percent effect (% product conversion; Y-axis) vs. Log10 compound concentrations (X-axis). EC50 values were calculated using a non-linear regression, four-parameters sigmoidal dose-response model.

RIPK1 (recombinant GST-RIPK1 kinase domain, residues 1-327), sequence (Q13546 1-327): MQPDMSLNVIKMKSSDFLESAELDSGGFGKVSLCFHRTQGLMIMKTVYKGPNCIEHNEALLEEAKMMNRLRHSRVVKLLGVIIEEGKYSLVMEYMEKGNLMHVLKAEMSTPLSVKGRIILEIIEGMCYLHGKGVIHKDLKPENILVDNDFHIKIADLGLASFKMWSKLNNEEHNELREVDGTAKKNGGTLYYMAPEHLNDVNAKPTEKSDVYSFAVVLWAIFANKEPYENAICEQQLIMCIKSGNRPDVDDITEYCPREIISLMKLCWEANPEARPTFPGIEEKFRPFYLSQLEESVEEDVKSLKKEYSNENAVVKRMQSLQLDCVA

| SMILES | EC50 |
| --- | --- |
| COc1cc(N2CCC3(CC2)O[C@@H]2CC[C@@H](c4cc(F)cc(F)c4)N2C3=O)ncn1 [Example 4.11, (5′S,7a′R)-5′-(3,5-difluorophenyl)-1-(6-methoxypyrimidin-4-yl)tetrahydro-3′H-spiro[piperidine-4,2′-pyrrolo[2,1-b] [1,3]oxazol]-3′-one] | < 25 nM |
| Cc1cc(C#N)cnc1N1CCC2(CC1)O[C@@H]1CC[C@@H](c3cc(F)cc(F)c3)N1C2=O [Example 4.47, 6-[(5′S,7a′R)-5′-(3,5-difluorophenyl)-3′-oxotetrahydro-1H,3′H-spiro[piperidine-4,2′-pyrrolo[2,1-b] [1,3]oxazol]-1-yl]-5-methylpyridine-3-carbonitrile] | < 25 nM |
| Cn1nc(C(F)(F)F)cc1-c1ccc(N2CCC3(CC2)O[C@@H]2CC[C@@H](c4ccccc4)N2C3=O)n2ncnc12 [Example 21.20, (5′S,7a′R)-1-{8-[1-methyl-3-(trifluoromethyl)-1H-pyrazol-5-yl][1,2,4]triazolo[1,5-a]pyridin-5-yl}-5′-phenyltetrahydro-3′H-spiro[piperidine-4,2′-pyrrolo[2,1-b][l,3]oxazol]-3′-one] | < 25 nM |
| O=C1N2[C@@H](CC[C@H]2c2ccccc2)OC12CCN(c1ncnc3ccsc13)CC2 [Example 4.37, (5′S,7a′R)-5′-phenyl-1-(thieno[3,2-d]pyrimidin-4-yl)tetrahydro-3′H-spiro[piperidine-4,2′-pyrrolo[2,1-b] [1,3]oxazol]-3′-one] | < 25 nM |
| CC1CC2(CCN1c1ccnc3c(F)cnn13)O[C@@H]1CC[C@@H](c3ccccc3)N1C2=O (stereo partly drawn) [Example 4.224, (4R,5′S,7a′R)-1-(3-fluoropyrazolo[1,5-a]pyrimidin-7-yl)-2-methyl-5′-phenyltetrahydro-3′H-spiro[piperidine-4,2′-pyrrolo[2,1-b] [1,3]oxazol]-3′-one] | < 25 nM |
| O=C1N2[C@@H](CC[C@H]2c2ccccc2)SC12CCN(c1ccnc3c(F)cnn13)CC2 [Example 4.132, (5′S,7a′R)-1-(3-fluoropyrazolo[1,5-a]pyrimidin-7-yl)-5′-phenyltetrahydro-3′H-spiro[piperidine-4,2′-pyrrolo[2,1-b]thiazol]-3′-one] | < 25 nM |
| CC1CN(C(=O)c2ccccc2)CCC12O[C@@H]1CC[C@@H](c3cc(F)cc(F)c3)N1C2=O (single isomer, unassigned) [Example 2.5, (3[S or R],4[R or S], 5′S,7a′R)-1-benzoyl-5′-(3,5-difluorophenyl)-3-methyltetrahydro-3′H-spiro[piperidine-4,2′-pyrrolo[2,1-b]oxazol]-3′-one] | 40.7 nM |
| COc1ccnc(N2CCC3(CC2)O[C@@H]2CC[C@@H](c4cc(F)cc(F)c4)N2C3=O)n1 [Example 4.10, (5′S,7a′R)-5′-(3,5-difluorophenyl)-1-(4-methoxypyrimidin-2-yl)tetrahydro-3′H-spiro[piperidine-4,2′-pyrrolo[2,1-b] [1,3]oxazol]-3′-one] | 35.5 nM |
| CC1CC2(CCN1C(=O)c1ccccc1)O[C@@H]1CC[C@@H](c3cc(F)cc(F)c3)N1C2=O (stereo partly drawn) [Example 6.106, (4R,5′S,7a′R)-1-(benzenecarbonyl)-5′-(3,5-difluorophenyl)-2-methyltetrahydro-3′H-spiro[piperidine-4,2′-pyrrolo[2,1-b] [1,3]oxazol]-3′-one] | 202 nM |
| CC1CC2(CCN1C(=O)c1ccccc1)O[C@@H]1CC[C@@H](c3cc(F)cc(F)c3)N1C2=O (stereo partly drawn) [Example 6.107, (4R,5′S,7a′R)-1-(benzenecarbonyl)-5′-(3,5-difluorophenyl)-2-methyltetrahydro-3′H-spiro[piperidine-4,2′-pyrrolo[2,1-b] [1,3]oxazol]-3′-one] | < 25 nM |
| COc1cc(N2CCC3(CC2)O[C@@H]2CC[C@@H](c4ccccc4)N2C3=O)ncc1C#N [Example 4.220, 4-methoxy-6-[(5′S,7a′R)-3′-oxo-5′-phenyltetrahydro-1H,3′H-spiro[piperidine-4,2′-pyrrolo[2,1-b] [1,3]oxazol]-1-yl]pyridine-3-carbonitrile] | < 25 nM |
| O=C1N2C(CCC2c2cccc(F)c2F)OC12CCN(c1ccnc3ccnn13)CC2 (stereo not drawn) [Example 20.7, 5′-(2,3-difluorophenyl)-1-(pyrazolo[1,5-a]pyrimidin-7-yl)tetrahydro-3′H-spiro[piperidine-4,2′-pyrrolo[2,1-b][1,3]oxazol]-3′-one] | < 25 nM |
| COc1ccc(C(=O)N2CCC3(CC2)O[C@@H]2CC[C@@H](c4cc(F)cc(F)c4)N2C3=O)c(F)c1 [Example 5.58, (5′S,7a′R)-5′-(3,5-difluoro-phenyl)-1-(2-fluoro-4-methoxybenzoyl)tetra-hydro-3′H-spiro[piperidine-4,2′-pyrrolo[2,1-b]oxazol]-3'-one] | 24.8 nM |

Results, then the compound that gave them:

| EC50 | SMILES |
| --- | --- |
| < 25 nM | O=C1N2[C@@H](CC[C@H]2c2ccccc2)OC12CCN(c1cc(F)ccn1)CC2 [Example 4.14, (5′S,7a′R)-1-(4-fluoropyridin-2-yl)-5′-phenyltetrahydro-3′H-spiro[piperidine-4,2′-pyrrolo[2,1-b] [1,3]oxazol]-3′-one] |
| < 25 nM | COc1nccc(N2CCC3(CC2)O[C@@H]2CC[C@@H](c4ccccc4)N2C3=O)n1 [Example 4.17, (5′S,7a′R)-1-(2-methoxypyrimidin-4-yl)-5′-phenyltetrahydro-3′H-spiro[piperidine-4,2′-pyrrolo[2,1-b] [1,3]oxazol]-3′-one] |
| 234 nM | N#Cc1cccc(CN2CCC3(CC2)O[C@@H]2CC[C@@H](c4cc(F)cc(F)c4)N2C3=O)c1 [Example 22.6, 3-{[(5′S,7a′R)-5′-(3,5-difluorophenyl)-3′-oxotetrahydro-1H,3′H-spiro[piperidine-4,2′-pyrrolo[2,1-b][1,3]oxazol]-1-yl]methyl}benzonitrile] |
| < 25 nM | O=C1N2[C@@H](CC[C@H]2c2cc(F)cc(F)c2)OC12CCN(c1cc(-c3cnn(C(F)F)c3)ncn1)CC2 [Example 10.1, (5′S,7a′R)-1-(6-(1-(difluoromethyl)-1H-pyrazol-4-yl)pyrimidin-4-yl)-5′-(3,5-difluorophenyl) tetrahydro-3′H-spiro[piperidine-4,2′-pyrrolo[2,1-b]oxazol]-3′-one] |
| 30.8 nM | O=C(c1cnn2ccccc12)N1CCC2(CC1)O[C@@H]1CC[C@@H](c3cc(F)cc(F)c3)N1C2=O [Example 5.72, (5′S,7a′R)-5′-(3,5-difluoro-phenyl)-1-(pyrazolo[1,5-a]-pyridine-3-carbonyl)tetra-hydro-3′H-spiro[piperidine-4,2′-pyrrolo[2,1-b]oxazol]-3′-one] |
| 25 nM | COc1cccc([C@@H]2CC[C@H]3OC4(CCN(c5ccc(C#N)c6ncnn56)CC4)C(=O)N32)c1 [Example 20.2, 5-[(5′S,7a′R)-5′-(3-methoxyphenyl)-3′-oxotetrahydro-1H,3′H-spiro[piperidine-4,2′-pyrrolo[2,1-b][1,3]oxazol]-1-yl][1,2,4]triazolo[1,5-a]pyridine-8-carbonitrile] |
| < 25 nM | O=C1N2[C@@H](CC[C@H]2c2ccccc2)OC12CCN(c1ccc(-c3ncco3)c3ccnn13)CC2 [Example 21.22, (5′S,7a′R)-1-[4-(1,3-oxazol-2-yl)pyrazolo[1,5-a]pyridin-7-yl]-5′-phenyltetrahydro-3′H-spiro[piperidine-4,2′-pyrrolo[2,1-b][1,3]oxazol]-3′-one] |
| < 25 nM | N#Cc1nccc(N2CCC3(CC2)O[C@@H]2CC[C@@H](c4cc(F)cc(F)c4)N2C3=O)n1 [Example 4.5, 4-[(5′S,7a′R)-5′-(3,5-difluorophenyl)-3′-oxotetrahydro-1H,3′H-spiro[piperidine-4,2′-pyrrolo[2,1-b] [1,3]oxazol]-1-yl]pyrimidine-2-carbonitrile] |
| < 25 nM | O=C(c1ccccc1F)N1CCC2(CC1)O[C@@H]1CC[C@@H](c3cc(F)cc(F)c3)N1C2=O [Example 1.9, (5′S,7a′R)-5′-(3,5-difluorophenyl)-1-(2-fluorobenzene-1-carbonyl)tetrahydro-3′H-spiro[piperidine-4,2′-pyrrolo[2,1-b] [1,3]oxazol]-3′-one] |
| < 25 nM | Cc1ccc(F)c(C(=O)N2CCC3(CC2)O[C@@H]2CC[C@@H](c4cc(F)cc(F)c4)N2C3=O)c1 [Example 6.5, (5′S,7a′R)-5′-(3,5-difluorophenyl)-1-(2-fluoro-5-methyl-benzene-1-carbonyl) tetrahydro-3′H-spiro [piperidine-4,2′-pyrrolo[2,1-b][1,3]oxazol]-3′-one] |
| < 25 nM | O=C(c1cccc(F)c1)N1CCC2(CC1)O[C@@H]1CC[C@@H](c3ccccc3)N1C2=O [Example 6.154, (5′S,7a′R)-1-(3-fluoro-benzene-1-carbonyl)-5′-phenyltetrahydro-3′H-spiro[piperidine-4,2′-pyrrolo[2,1-b] [1,3]oxazol]-3′-one] |
